In PubChem BioAssay (NCI):
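Protocol summary: plate cells (96-well), add compound at 5 concentrations, incubate 48 h, interpolate endpoints linearly. Here, GI50 denotes the concentration required for 50% inhibition of growth. Definition used: TGI = concentration required for complete inhibition of growth.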

Columns and labels:
Assay in all cases: inhibition of tumour cell growth, NCI panel, 48 h
786-0 renal = test system: 786-0 renal
A498 renal = test system: A498 renal
A549 NSCLC = test system: A549 NSCLC
ACHN renal = test system: ACHN renal
BT-549 breast = test system: BT-549 breast
CAKI-1 renal = test system: CAKI-1 renal
CCRF-CEM leukemia = test system: CCRF-CEM leukemia
COLO 205 colon = test system: COLO 205 colon
DU-145 prostate = test system: DU-145 prostate
EKVX NSCLC = test system: EKVX NSCLC
HCC-2998 colon = test system: HCC-2998 colon
HCT-116 colon = test system: HCT-116 colon
HCT-15 colon = test system: HCT-15 colon
HL-60(TB) leukemia = test system: HL-60(TB) leukemia
HOP-62 NSCLC = test system: HOP-62 NSCLC
HOP-92 NSCLC = test system: HOP-92 NSCLC
HS 578T breast = test system: HS 578T breast
HT29 colon = test system: HT29 colon
IGROV1 ovarian = test system: IGROV1 ovarian
K-562 leukemia = test system: K-562 leukemia
KM12 colon = test system: KM12 colon
LOX IMVI melanoma = test system: LOX IMVI melanoma
M14 melanoma = test system: M14 melanoma
MALME-3M melanoma = test system: MALME-3M melanoma
MCF7 breast = test system: MCF7 breast
MDA-MB-231 breast = test system: MDA-MB-231 breast
MDA-MB-435 = test system: MDA-MB-435
MOLT-4 leukemia = test system: MOLT-4 leukemia
NCI-H226 lung = test system: NCI-H226 lung
NCI-H460 lung = test system: NCI-H460 lung
NCI-H522 lung = test system: NCI-H522 lung
NCI/ADR-RES ovarian = test system: NCI/ADR-RES ovarian
OVCAR-3 ovarian = test system: OVCAR-3 ovarian
OVCAR-4 ovarian = test system: OVCAR-4 ovarian
OVCAR-5 ovarian = test system: OVCAR-5 ovarian
OVCAR-8 ovarian = test system: OVCAR-8 ovarian
PC-3 prostate = test system: PC-3 prostate
RPMI-8226 leukemia = test system: RPMI-8226 leukemia
RXF 393 renal = test system: RXF 393 renal
SF-268 CNS = test system: SF-268 CNS
SF-295 CNS = test system: SF-295 CNS
SF-539 CNS = test system: SF-539 CNS
SK-MEL-2 melanoma = test system: SK-MEL-2 melanoma
SK-MEL-28 melanoma = test system: SK-MEL-28 melanoma
SK-MEL-5 melanoma = test system: SK-MEL-5 melanoma
SK-OV-3 ovarian = test system: SK-OV-3 ovarian
SN12C renal = test system: SN12C renal
SNB-19 CNS = test system: SNB-19 CNS
SNB-75 CNS = test system: SNB-75 CNS
SR leukemia = test system: SR leukemia
SW-620 colon = test system: SW-620 colon
T-47D breast = test system: T-47D breast
TK-10 renal = test system: TK-10 renal
U251 CNS = test system: U251 CNS
UACC-257 melanoma = test system: UACC-257 melanoma
UACC-62 melanoma = test system: UACC-62 melanoma
UO-31 renal = test system: UO-31 renal

Compound: C#C[C@]1(O)CC[C@H]2[C@@H]3CC=C4c5sc(Nc6ccc(Cl)cn6)nc5CC[C@]4(C)[C@H]3CC[C@@]21C
- GI50 (786-0 renal): 1.56 µM
- TGI (786-0 renal): 3.42 µM
- GI50 (A498 renal): 2.15 µM
- TGI (A498 renal): 4.75 µM
- GI50 (A549 NSCLC): 6.4 µM
- TGI (A549 NSCLC): > 100 µM
- GI50 (ACHN renal): 5.07 µM
- TGI (ACHN renal): > 100 µM
- GI50 (BT-549 breast): 2.88 µM
- TGI (BT-549 breast): 25.2 µM
- GI50 (CAKI-1 renal): 3.48 µM
- TGI (CAKI-1 renal): > 100 µM
- GI50 (CCRF-CEM leukemia): 0.0721 µM
- TGI (CCRF-CEM leukemia): > 100 µM
- GI50 (COLO 205 colon): 23.5 µM
- TGI (COLO 205 colon): > 100 µM
- GI50 (DU-145 prostate): > 100 µM
- TGI (DU-145 prostate): > 100 µM
- GI50 (EKVX NSCLC): 3.51 µM
- TGI (EKVX NSCLC): > 100 µM
- GI50 (HCC-2998 colon): 66.8 µM
- TGI (HCC-2998 colon): > 100 µM
- GI50 (HCT-116 colon): 3.47 µM
- TGI (HCT-116 colon): > 100 µM
- GI50 (HCT-15 colon): 3.03 µM
- TGI (HCT-15 colon): > 100 µM
- GI50 (HL-60(TB) leukemia): 3.5 µM
- TGI (HL-60(TB) leukemia): > 100 µM
- GI50 (HOP-62 NSCLC): 3.31 µM
- TGI (HOP-62 NSCLC): > 100 µM
- GI50 (HOP-92 NSCLC): 3.45 µM
- TGI (HOP-92 NSCLC): 73.4 µM
- GI50 (HS 578T breast): 2.17 µM
- TGI (HS 578T breast): 6.53 µM
- GI50 (HT29 colon): 6.83 µM
- TGI (HT29 colon): > 100 µM
- GI50 (IGROV1 ovarian): 9.14 µM
- TGI (IGROV1 ovarian): > 100 µM
- GI50 (K-562 leukemia): 3.34 µM
- TGI (K-562 leukemia): > 100 µM
- GI50 (KM12 colon): 4.04 µM
- TGI (KM12 colon): > 100 µM
- GI50 (LOX IMVI melanoma): 2.1 µM
- TGI (LOX IMVI melanoma): 4.33 µM
- GI50 (M14 melanoma): 3.12 µM
- TGI (M14 melanoma): > 100 µM
- GI50 (MALME-3M melanoma): 8.97 µM
- TGI (MALME-3M melanoma): > 100 µM
- GI50 (MCF7 breast): 1.8 µM
- TGI (MCF7 breast): 4.47 µM
- GI50 (MDA-MB-231 breast): 3.34 µM
- TGI (MDA-MB-231 breast): > 100 µM
- GI50 (MDA-MB-435): 3.73 µM
- TGI (MDA-MB-435): > 100 µM
- GI50 (MOLT-4 leukemia): 2.79 µM
- TGI (MOLT-4 leukemia): > 100 µM
- GI50 (NCI-H226 lung): 7.41 µM
- TGI (NCI-H226 lung): > 100 µM
- GI50 (NCI-H460 lung): 3.95 µM
- TGI (NCI-H460 lung): > 100 µM
- GI50 (NCI-H522 lung): 10.5 µM
- TGI (NCI-H522 lung): > 100 µM
- GI50 (NCI/ADR-RES ovarian): 15.9 µM
- TGI (NCI/ADR-RES ovarian): > 100 µM
- GI50 (OVCAR-3 ovarian): 7.66 µM
- TGI (OVCAR-3 ovarian): > 100 µM
- GI50 (OVCAR-4 ovarian): 7.73 µM
- TGI (OVCAR-4 ovarian): > 100 µM
- GI50 (OVCAR-5 ovarian): 24.1 µM
- TGI (OVCAR-5 ovarian): > 100 µM
- GI50 (OVCAR-8 ovarian): 6.32 µM
- TGI (OVCAR-8 ovarian): > 100 µM
- GI50 (PC-3 prostate): 1.68 µM
- TGI (PC-3 prostate): 6.91 µM
- GI50 (RPMI-8226 leukemia): 1.03 µM
- TGI (RPMI-8226 leukemia): 4.18 µM
- GI50 (RXF 393 renal): 0.642 µM
- TGI (RXF 393 renal): 2.25 µM
- GI50 (SF-268 CNS): 4.35 µM
- TGI (SF-268 CNS): > 100 µM
- GI50 (SF-295 CNS): 1.82 µM
- TGI (SF-295 CNS): 3.75 µM
- GI50 (SF-539 CNS): 1.62 µM
- TGI (SF-539 CNS): 4.03 µM
- GI50 (SK-MEL-2 melanoma): 3.83 µM
- TGI (SK-MEL-2 melanoma): > 100 µM
- GI50 (SK-MEL-28 melanoma): 1.72 µM
- TGI (SK-MEL-28 melanoma): 3.68 µM
- GI50 (SK-MEL-5 melanoma): 79.5 µM
- TGI (SK-MEL-5 melanoma): > 100 µM
- GI50 (SK-OV-3 ovarian): 3.44 µM
- TGI (SK-OV-3 ovarian): 13.4 µM
- GI50 (SN12C renal): > 100 µM
- TGI (SN12C renal): > 100 µM
- GI50 (SNB-19 CNS): 4.95 µM
- TGI (SNB-19 CNS): > 100 µM
- GI50 (SNB-75 CNS): 4.07 µM
- TGI (SNB-75 CNS): > 100 µM
- GI50 (SR leukemia): 3.08 µM
- TGI (SR leukemia): > 100 µM
- GI50 (SW-620 colon): 4.77 µM
- TGI (SW-620 colon): > 100 µM
- GI50 (T-47D breast): 61.2 µM
- TGI (T-47D breast): > 100 µM
- GI50 (TK-10 renal): > 100 µM
- TGI (TK-10 renal): > 100 µM
- GI50 (U251 CNS): 2.66 µM
- TGI (U251 CNS): > 100 µM
- GI50 (UACC-257 melanoma): 2.49 µM
- TGI (UACC-257 melanoma): 6.65 µM
- GI50 (UACC-62 melanoma): 3.23 µM
- TGI (UACC-62 melanoma): > 100 µM
- GI50 (UO-31 renal): 2.96 µM
- TGI (UO-31 renal): > 100 µM
